Patent US20190343782A1, “METHODS OF TREATING LIVER TOXICITY AND DISORDERS” (Yeda Research and Development Co. Ltd., priority 2016, published 2019)

Assay: APAP-induced hepatotoxicity: liver enzyme release and liver histology
Format: in vivo
Settings: control mice; APAP 500 mg/kg intraperitoneally at ZT0 versus ZT12; analyzed 10 hours after injection
Procedure: Mice: C57B1/6 mice were purchased from Harlan and allowed to acclimatize to the animal facility environment for 2 weeks before used for experimentation. […] In all experiments, age- and gender-matched mice were used. Mice were 8-9 weeks of age at the beginning of experiments. All mice were kept at a strict 24-hour light-dark cycle, with lights being turn on from 6 am to 6 pm. […] Acetaminophen was administered intraperitoneally at a concentration of 500 mg/kg at either ZT0 or ZT12, and mice were analyzed 10 hours after injection. All antibiotics as well as acetaminophen were obtained from Sigma Aldrich.
Histology: Sections from the left lobe of the liver were fixed in paraformaldehyde and embedded in paraffin for staining with H&E. Subsequently, sections were examined by a blinded veterinary pathologist and scored for necrosis and hemorrhage on a scale from 0 (healthy) to 3 (most severe).
Statistical analysis: Data are expressed as mean ±SEM. […] Unless stated otherwise, elements with p<0.05 and q<0.1 were considered significant. For metabolites, q<0.2 was considered significant. For two-group comparisons, Mann-Whitney U-test was used and comparisons with p<0.05 were considered significant.

With `CC(=O)Nc1ccc(O)cc1` [APAP, acetaminophen] as the compound, how does the “APAP-induced hepatotoxicity (liver enzyme release, liver histology)” value read?
Its value is “dramatically exacerbated liver toxicity when APAP was injected at ZT12 as compared to ZTO”.
